Experiment: Human HepG2 cell viability assay in 384 well format
Type: toxicity, cell-based
Set-up: dose 125 nL, time 70.5 hour; cytotoxicity at 70.5 h: concentration not given beside the values
Settings: HepG2 cells, read-out: Inhibition

Row | SMILES | cytotoxicity at 70.5 h [%]
1 | CCN1CCC(CC(=O)NCCc2nc(C)c(Cl)s2)CC1 | -6.45
2 | COc1ccc(F)cc1C(=O)N1CC(c2ccncc2)C1 | -10
3 | c1cnc(N2CC3(CCN(Cc4ccncc4)C3)C2)nc1 | -6.13
4 | CCCN(Cc1ccc(C#N)cc1)Cc1nnsc1Cl | 26.4
5 | CC(=O)N1CCCC2(CN(Cc3ccncc3)CCO2)C1 (stereo not given) | -1.7
6 | COc1ccc(CCCC(=O)NCc2c(C)noc2C)cc1F | 20
7 | Cc1ccccc1OCCC(=O)OC(C)C(=O)Nc1sccc1C(N)=O (stereo not given) | -7.64
8 | NCc1ccnc(Oc2ccccc2)c1 | -8.2
9 | CN(C)c1nc2n(c(=O)n1)CCN2C(=O)Nc1ccccc1 | -5.25
10 | N#Cc1ncn(CCC(=O)Nc2ccccc2F)n1 | -0.493
11 | O=C1CCCN1CCN1CCCCC1Cn1cccn1 (stereo not given) | -10.6
12 | CCCc1ccc(CN2CCN(C(=O)NCC)[C@H]3CS(=O)(=O)C[C@H]32)o1 | -15.3
13 | Cc1nn(CC(=O)N2CCN(c3cnccn3)CC2)c(C)c1Cl | -9.18
14 | O=C(Nc1cc(CCC2CCN(CCO)CC2)ccn1)c1ccccn1 | 45.9
15 | CCCc1nc(C(=O)NCCCn2nnc3ccccc32)cs1 | -8.53
16 | O=C(NCc1ccc2c(c1)CCCO2)c1ccc(C2CCNC2)cc1 (stereo not given) | -18
17 | Cc1cccc(CNC(=O)Nc2ccn(CCCC(=O)N(C)C)n2)c1 | -7.9
18 | Clc1cccc(-c2noc(CCN3CCN(c4ccncc4)CC3)n2)c1 | 4
19 | COc1ccccc1CNC1(CCO)CCOCC1 | 20.6
20 | CN(CCN(C)S(=O)(=O)CC1CCOCC1)c1ccccc1 | -3.42
21 | Cn1ccc(C(=O)N2CCCC2c2[nH]ncc2C(N)=O)n1 (stereo not given) | -4.61
22 | O=C(c1ccno1)N1CC[C@@H]2CN(C3CCOCC3)CCO[C@@H]2C1 | -5.94
23 | COCC(=O)NCc1cccc(OCCN(C)C2CCOCC2)c1 | -0.957

Row | SMILES | cytotoxicity at 70.5 h [%]
24 | CN(C)S(=O)(=O)N1C[C@@H]2CC[C@H](C1)N(Cc1cccc(C#N)c1)C2 | -8.84
25 | Cn1nccc1-c1cc(C2CCN(S(C)(=O)=O)CC2)ccn1 | -7.68
26 | Cn1cc(CN2CC[C@@H](NS(C)(=O)=O)[C@@H]2Cc2cccnc2)cn1 | -12.3
27 | CCn1nc2c(cc1=O)CN(CCOc1ccc(C#N)cc1)CC2 | 17.6
28 | CCOc1ccc(C2CCCN2C(=O)NCCn2ccnc2)cc1 (stereo not given) | -1.63
29 | COc1ccccc1C1CNCCN1C(=O)c1ccc(F)cc1 (stereo not given) | 0.353
30 | O=C(NCCn1nc(C2CCNC2)c2cccnc21)c1ccccc1 (stereo not given) | -4.57
31 | CC1CN(C(=O)c2cnn(-c3ccccn3)c2C(C)C)CC(C)(C)O1 (stereo not given) | -4.17
32 | CNC(=O)C1(Cc2cc(C(C)C)no2)CCN(Cc2ccccn2)C1 (stereo not given) | -0.0563
33 | CN(C)C(=O)COC[C@@H]1CC[C@H]2[C@H](CCN2c2ncccn2)O1 | -66.5
34 | Cc1nc[nH]c1-c1nccn1CCN1CCOC1=O | -8.03
35 | Cn1cnc2c1C(COCc1ccccc1)N(Cc1ccccn1)CC2 (stereo not given) | -0.00457
36 | Cn1cc(CN2CCc3c(CNC(=O)C4CC4)cncc3C2)cn1 | -1.11
37 | CC(C)CCN1C[C@@H]2OCCN(c3ncc(F)cn3)[C@@H]2C1 | -4.42
38 | CCOCCN1CCN(CCc2nc3ccccc3c(=O)[nH]2)CC1 | 1.75
39 | O=C1C[C@H]2[C@@H](CCN2C(=O)Cc2cccs2)N1Cc1ccncc1 | 27.8
40 | Cc1nnc(CN2CCCC(c3cc(C(N)=O)[nH]n3)C2)o1 (stereo not given) | -15.2
41 | COc1cccc2c1OCC(C(=O)N1CCSCC1)C2 (stereo not given) | -8.37
42 | Cc1ccc(C(=O)N2CCn3c(COCC4CC4)cnc3C2C)s1 (stereo not given) | -4.86
43 | Cc1nc(C)n(C2CCCN(C(=O)c3c[nH]c(C(C)C)n3)C2)n1 (stereo not given) | -11.1
44 | CCOc1ccc(NC(=O)C2OC(c3cccs3)=NN2C(C)=O)cc1 (stereo not given) | 11.5
45 | NC(=O)c1cc2c(nc1Oc1ccccc1CN1CCCCC1)CCC2 | -15

Reference: ChEMBL document CHEMBL3507680, “University of Dundee, Gates Library screen for HepG2 cell viability”
